Laboratory results: patent US4110327A, “2,3 Diketo-piperazinocarbonylamino alkanoic acids and derivatives” (Toyama Chemical Co., Ltd., priority 1974, dated 1978)
Values after ≈ are worked out from the molar mass of the structure shown.

Key:
Test in all cases: MIC against standard strain, plate method
Type in all cases: cell-based
Escherichia coli NIHJ = conditions: unit assumed
Description: (§1) The minimum inhibitory concentrations (MIC) was determined by the plate method disclosed in "Chemotherapy" (Japan), Vol. 16, (1968), pages 98 - 99. The culture medium used was a Heart infusion agar (pH 7.4). The number of the cells per plate used in the inoculum as 10^4 (10^6 cells/ml).

Proteus vulgaris 3027 = conditions: Proteus vulgaris 3027, standard strain; unit assumed
Description: as §1

[1] = test system: Pseudomonas aeruginosa I.F.O.; conditions: unit assumed
Description: as §1

[2] = test system: Staphylococcus aureus 209p; conditions: unit assumed
Description: as §1

Klebsiella pneumoniae = conditions: unit assumed
Description: as §1

`CCCCN1C(=O)CN(C(=O)N[C@@H](C(=O)N[C@@H]2C(=O)N3[C@@H]2SC(C)(C)[C@@H]3C(=O)O)c2ccccc2)CC1C` (stereo partly shown) [compound 22] showed an MIC (Escherichia coli NIHJ) of under 1.57 µg/mL, an MIC (Proteus vulgaris 3027) of 6.25 µg/mL (≈ 11.5 µM) and an MIC [1] of 50 µg/mL (≈ 91.6 µM). It also gave an MIC [2] of under 1.57 µg/mL and an MIC (Klebsiella pneumoniae) of 12.5 µg/mL (≈ 22.9 µM).

`CC1(C)S[C@@H]2[C@H](NC(=O)[C@H](NC(=O)N3CCN(C(=O)Nc4ccccc4)C(=O)C3)c3ccccc3)C(=O)N2[C@H]1C(=O)O` [compound 33] was tested, and the MIC (Escherichia coli NIHJ) was under 1.57 µg/mL, the MIC (Proteus vulgaris 3027) was 3.13 µg/mL (≈ 5.26 µM) and the MIC [1] was 50 µg/mL (≈ 84.1 µM). For the same compound, the MIC [2] was under 1.57 µg/mL and the MIC (Klebsiella pneumoniae) was 6.25 µg/mL (≈ 10.5 µM).

For `CCN1CCN(C(=O)NC(C(=O)NC2C(=O)N3C(C(=O)O)=C(CSc4cccc[n+]4[O-])CSC23)c2ccccc2)C(=O)C1=O` (single isomer, unassigned) [compound 70], the MIC (Escherichia coli NIHJ) was 1.57 µg/mL (≈ 2.45 µM), the MIC (Proteus vulgaris 3027) was under 0.79 µg/mL and the MIC [1] was 100 µg/mL (≈ 156 µM). It also gave an MIC [2] of under 0.79 µg/mL and an MIC (Klebsiella pneumoniae) of 1.56 µg/mL (≈ 2.43 µM).

For `CC1(C)S[C@@H]2[C@H](NC(=O)[C@H](NC(=O)N3CCN(c4ccccc4)C(=O)C3=O)c3ccccc3)C(=O)N2[C@H]1C(=O)O` (single isomer, unassigned) [compound 43], the MIC (Escherichia coli NIHJ) was under 1.57 µg/mL, the MIC (Proteus vulgaris 3027) was under 1.57 µg/mL and the MIC [1] was 6.25 µg/mL (≈ 11.1 µM). The MIC [2] was under 1.57 µg/mL and the MIC (Klebsiella pneumoniae) was 1.57 µg/mL (≈ 2.78 µM).

For `CC(=O)NC(=O)N1CCN(C(=O)N[C@@H](C(=O)N[C@@H]2C(=O)N3[C@@H]2SC(C)(C)[C@@H]3C(=O)O)c2ccccc2)C(=O)C1` [compound 11], the MIC (Escherichia coli NIHJ) was under 1.57 µg/mL, the MIC (Proteus vulgaris 3027) was 6.25 µg/mL (≈ 11.1 µM) and the MIC [1] was 50 µg/mL (≈ 89.2 µM). For the same compound, the MIC [2] was under 1.57 µg/mL and the MIC (Klebsiella pneumoniae) was 50 µg/mL (≈ 89.2 µM).

`CCCCN1CC(=O)N(C(=O)N[C@@H](C(=O)N[C@@H]2C(=O)N3[C@@H]2SC(C)(C)[C@@H]3C(=O)O)c2ccccc2)C(C)C1` (stereo partly shown) [compound 15] gave an MIC (Escherichia coli NIHJ) of 3.13 µg/mL (≈ 5.74 µM), an MIC (Proteus vulgaris 3027) of 6.25 µg/mL (≈ 11.5 µM) and an MIC [1] of 50 µg/mL (≈ 91.6 µM). For the same compound, the MIC [2] was under 1.57 µg/mL and the MIC (Klebsiella pneumoniae) was 6.25 µg/mL (≈ 11.5 µM).

Compound `CCCCCCCCN1CCN(C(=O)NC(C(=O)NC2C(=O)N3C2SC(C)(C)C3C(=O)OCCN2CCCCC2)c2ccccc2)C(=O)C1=O` (single isomer, unassigned) [compound 54] has an MIC (Escherichia coli NIHJ) of 0.4 µg/mL (≈ 0.561 µM), an MIC (Proteus vulgaris 3027) of 0.79 µg/mL (≈ 1.11 µM) and an MIC [1] of 12.5 µg/mL (≈ 17.5 µM). The MIC [2] was 0.79 µg/mL (≈ 1.11 µM) and the MIC (Klebsiella pneumoniae) was 0.79 µg/mL (≈ 1.11 µM).

Work on `Cc1ccc(C(=O)N2CCN(C(=O)N[C@@H](C(=O)N[C@@H]3C(=O)N4[C@@H]3SC(C)(C)[C@@H]4C(=O)O)c3ccccc3)C(=O)C2)cc1` [compound 9] yielded an MIC (Escherichia coli NIHJ) of 3.13 µg/mL (≈ 5.27 µM), an MIC (Proteus vulgaris 3027) of 3.13 µg/mL (≈ 5.27 µM) and an MIC [1] of 100 µg/mL (≈ 168 µM). For the same compound, the MIC [2] was under 1.57 µg/mL and the MIC (Klebsiella pneumoniae) was 3.13 µg/mL (≈ 5.27 µM).

For `CN1CCN(C(=O)NC(C(=O)N[C@@H]2C(=O)N3[C@@H]2SC(C)(C)[C@@H]3C(=O)O)c2cccs2)C(=O)C1=O` (stereo partly shown) [compound 58], the MIC (Escherichia coli NIHJ) was under 1.57 µg/mL, the MIC (Proteus vulgaris 3027) was 3.13 µg/mL (≈ 6.14 µM) and the MIC [1] was 12.5 µg/mL (≈ 24.5 µM). It also gave an MIC [2] of under 1.57 µg/mL and an MIC (Klebsiella pneumoniae) of 25 µg/mL (≈ 49.1 µM).

Work on `CN1CCN(C(=O)NC(C(=O)NC2C(=O)N3C2SC(C)(C)C3C(=O)O)C2=CCC=CC2)C(=O)C1=O` (stereo not shown) [compound 57] yielded an MIC (Escherichia coli NIHJ) of under 0.79 µg/mL, an MIC (Proteus vulgaris 3027) of 3.13 µg/mL (≈ 6.19 µM) and an MIC [1] of 12.5 µg/mL (≈ 24.7 µM). It also gave an MIC [2] of under 0.79 µg/mL and an MIC (Klebsiella pneumoniae) of 12.5 µg/mL (≈ 24.7 µM).

With `CCCCCCCCN1CCN(C(=O)NC(C(=O)NC2C(=O)N3C2SC(C)(C)C3C(=O)OCCN2CCOCC2)c2ccccc2)C(=O)C1=O` (stereo not shown) [compound 56] the MIC (Escherichia coli NIHJ) was under 0.4 µg/mL, the MIC (Proteus vulgaris 3027) was 0.79 µg/mL (≈ 1.11 µM) and the MIC [1] was 12.5 µg/mL (≈ 17.5 µM). For the same compound, the MIC [2] was under 0.4 µg/mL and the MIC (Klebsiella pneumoniae) was 1.57 µg/mL (≈ 2.2 µM).

Work on `COCOC(=O)[C@@H]1N2C(=O)[C@@H](NC(=O)[C@H](NC(=O)N3CCN(C)C(=O)C3=O)c3ccccc3)[C@H]2SC1(C)C` (single isomer, unassigned) [compound 50] yielded an MIC (Escherichia coli NIHJ) of under 0.79 µg/mL, an MIC (Proteus vulgaris 3027) of under 0.79 µg/mL and an MIC [1] of 6.25 µg/mL (≈ 11.4 µM). For the same compound, the MIC [2] was under 0.79 µg/mL and the MIC (Klebsiella pneumoniae) was 6.25 µg/mL (≈ 11.4 µM).

Work on `CN1CCN(C(=O)NC(C(=O)NC2C(=O)N3C2SC(C)(C)C3C(=O)OCCN2CCOCC2)c2ccccc2)C(=O)C1=O` (single isomer, unassigned) [compound 55] yielded an MIC (Escherichia coli NIHJ) of 0.4 µg/mL (≈ 0.649 µM), an MIC (Proteus vulgaris 3027) of 0.79 µg/mL (≈ 1.28 µM) and an MIC [1] of 6.25 µg/mL (≈ 10.1 µM). For the same compound, the MIC [2] was 0.79 µg/mL (≈ 1.28 µM) and the MIC (Klebsiella pneumoniae) was 25 µg/mL (≈ 40.5 µM).

For `CN1CCN(C(=O)N[C@@H](C(=O)N[C@@H]2C(=O)N3[C@@H]2SC(C)(C)[C@@H]3C(=O)OCCN2CCCCC2)c2ccccc2)C(=O)C1=O` (single isomer, unassigned) [compound 53], the MIC (Escherichia coli NIHJ) was under 0.4 µg/mL, the MIC (Proteus vulgaris 3027) was 0.79 µg/mL (≈ 1.29 µM) and the MIC [1] was 6.25 µg/mL (≈ 10.2 µM). It also gave an MIC [2] of 0.79 µg/mL (≈ 1.29 µM) and an MIC (Klebsiella pneumoniae) of 25 µg/mL (≈ 40.7 µM).
